Residues, ends and D or L forms follow the SMILES beside them.
What was measured:
[1] = target: T1, interaction of platelets (GPIb) with vWF-A1 domain (Homo sapiens, UniProt P07359); assay: platelet adhesion to wells coated with vWF-A1 (calcein-AM labelled platelets, Acumen laser-scanning cytometry); format: cell-based
T1 construct: it is advantageous to use whole platelets instead of the isolated GpIb protein; host or cells: human platelets from platelet concentrate
Experimental: 25 μl of the TBS-vWF-A1-Coating/Blocking-Puffer 1× (containing 15 μg/ml vWF-A1) is added sterile per well using a Multidrop from Labsystems. Plates were incubated and stored minimally overnight up to one week. Storage is at 4 C, sterile and protected against evaporation.
One hour before test substance addition, the wells of the plates were blocked with BSA. Before the wells were washed with 1×TBS-Washbuffer, 60 μl/Well using an ELx405 Microplate Washer (96 wells) from Biotek.
Immediately after (wells should not dry out) the wells were blocked 5% BSA-Fatty acid free 40 μl/Well using a Multidrop from Labsystems. Wells were incubated 1-2 hours until test substances were added.
Sealed plates delivered from test substance management were stored at −20° C. until use. Test substances were dissolved in 100% DMSO at 3 mM. Test substances were diluted in TBS-Adhaesionbuffer 1× till 10 μM final concentration. Diluted test substance were stored at RT and used within hours. HTS occurred in single-point determination.
Surplus of BSA is washed away by washing the wells with 1×TBS-Washbuffer, 60 μl/Well using an ELx405 Microplate Washer (96 wells) from Biotek, followed by the addition of 10 μl test substance solution or high and low control using Cybio robotics. Plates were not allowed to dry out.
LOW-Control: no vWF-A1-Coating, just BSA-treated plates for blocking HIGH-Control: vWF-A1+ Standard (non-toxic GPIb inhibitor) vWF-A1+ and OS-1 10 μM
The total time needed between removing the platelets from the platelet concentrate, as obtained from the German Red Cross and disoensing the platelets into the multiwall plates should be between 45-60 mins.
The bag containing the platelet concentrate, as obtained from the German Red Cross, is removed from the agitation table (see 1.2; cells) and is put in a sterile flow cabinet on an absorbing towel to absorb any spills. The tubing, tube clamps and scissors are sterilized with 70% ethanol in water.
The tubing from the bag with platelet concentrate is clamped and the tubing is cut. The clamp is released and the first ca. 10 ml concentrate that comes out of the bag is discarded. 30 ml concentrate is poured into n 50 ml BD-Falcon tube made of polypropylene.
Next, 2.5 μl PGE-stock (0.5 mg/ml) is added to an empty 12 ml round-bottom tube made of polypropylene (Greiner). To this 5 ml platelet concentrate is added (final concentration of PGE1 is 0.25 μg/ml) and the tube is gently mixed and incubated 5 min at RT. […]

[2] = test system: interaction of platelets with collagen 1 (rat tail); assay: platelet-collagen 1 interaction assay (counter-screen); format: cell-based, human; conditions: test substances at 10 μM
Experimental: For this assay essentially the same set up was used as described above for testing the adhesion of platelets onto A1-coated plates.
To coat wells with rat tail collagen1, a stock solution consisting of 200 μg/ml Collagen I (rat tail, SIGMA (C8897)) in 0.01 M acetic acid was prepared. This solution was diluted with 0.01 M acetic acid to 10 μg/ml and 25 μl was added to a 384 well. Plates were incubated overnight at 4 C for binding of collagen1 to the well. One hour before test substance addition, the wells of the plates were blocked with BSA as described above. Also the preparation, labeling and dispension of platelets was as described for vWF-A1. For the platelet adhesion to collagen I, the concentration of MgCl2 was increased to 4 mM and the number of platelets added per well to 50 000 platelets. Using these conditions, the assay was able to detect the interaction of specific inhibitors with good statistical parameters, see FIG. 11.
A set of 6 plates were tested under automated conditions. For all plates a Z′ value above 0.5 was obtained with a S/B of 20 or more.
A training set composed 69 test substances in total was used to validate this assay. […]

T1 sequence (P07359 17-652): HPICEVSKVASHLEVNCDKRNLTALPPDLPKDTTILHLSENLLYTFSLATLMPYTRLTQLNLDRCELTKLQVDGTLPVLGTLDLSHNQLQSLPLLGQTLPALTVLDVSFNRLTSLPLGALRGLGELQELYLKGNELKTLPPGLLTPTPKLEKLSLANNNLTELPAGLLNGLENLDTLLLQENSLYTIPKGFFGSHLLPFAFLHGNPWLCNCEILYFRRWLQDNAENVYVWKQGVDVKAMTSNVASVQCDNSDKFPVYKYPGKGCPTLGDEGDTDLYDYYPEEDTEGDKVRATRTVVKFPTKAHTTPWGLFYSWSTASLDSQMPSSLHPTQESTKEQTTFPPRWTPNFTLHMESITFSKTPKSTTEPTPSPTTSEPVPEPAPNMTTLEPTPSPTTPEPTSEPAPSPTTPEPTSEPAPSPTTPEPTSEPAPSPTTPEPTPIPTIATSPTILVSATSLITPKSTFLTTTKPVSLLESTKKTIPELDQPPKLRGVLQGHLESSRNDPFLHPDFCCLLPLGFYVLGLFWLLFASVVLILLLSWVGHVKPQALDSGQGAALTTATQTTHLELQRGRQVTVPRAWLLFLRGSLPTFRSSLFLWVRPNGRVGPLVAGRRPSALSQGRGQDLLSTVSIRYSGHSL
T1 sequence (P13224 26-206 partner): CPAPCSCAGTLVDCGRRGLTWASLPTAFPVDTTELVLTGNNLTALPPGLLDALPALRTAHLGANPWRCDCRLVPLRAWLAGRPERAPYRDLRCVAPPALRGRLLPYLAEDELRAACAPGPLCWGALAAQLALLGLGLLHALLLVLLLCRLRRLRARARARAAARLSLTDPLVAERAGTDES
T1 sequence (P14770 17-177 partner): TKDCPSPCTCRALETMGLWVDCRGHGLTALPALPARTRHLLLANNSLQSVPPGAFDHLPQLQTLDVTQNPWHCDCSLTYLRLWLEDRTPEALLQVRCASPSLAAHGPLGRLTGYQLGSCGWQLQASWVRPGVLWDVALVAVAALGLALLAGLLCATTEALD

CSCC[C@@H]1NC(=O)[C@H](CCCNC(=N)N)NC(=O)[C@H](CCC(=O)O)NC(=O)[C@H]([C@@H](C)O)NC(=O)[C@@H](N)CSSC[C@@H](C(=O)O)NC(=O)[C@H](CC(C)C)NC(=O)[C@H](CC(N)=O)NC(=O)[C@H](Cc2c[nH]cn2)NC(=O)[C@H](CC(C)C)NC(=O)[C@H](C)NC1=O [OS-1] (HELM PEPTIDE1{C.T.E.R.M.A.L.H.N.L.C}$PEPTIDE1,PEPTIDE1,1:R3-11:R3$$$V2.0; N-terminus and C-terminus assumed)
inhibition at 10 µM ([1]; OS-1 at 10 μM, optimized washer settings, FIG. 6): ~90% | inhibition by OS-1 during fully automated run of 30 plates ([1]; all plates of the run, FIG. 9): high inhibition | inhibition of platelet attachment to vWF-A1 (in words) ([1]; optimized washer program, FIG. 6 legend): almost complete inhibition | effect of increasing plate storage times on inhibition ([1]; prolonged storage at room temperature, FIG. 8): almost constant values | inhibition of the platelet interaction with collagen [2]: did not inhibit
